One assay deals with Candida albicans. Nature of the assay: Antifungal activity against Candida albicans Berkhout assessed as inhibition of fungal growth by broth microdilution method. Type of assay: functional, organism-based.
The next assay relates to Klebsiella pneumoniae. Nature of the assay: Antibacterial activity against Klebsiella pneumoniae assessed as inhibition of bacterial growth by broth microdilution method. It is filed as functional, organism-based. (In general: Broth dilution looks for growth in wells or tubes with falling amounts of substance.)
The next assay deals with Staphylococcus aureus. Nature of the assay: Antibacterial activity against Staphylococcus aureus assessed as inhibition of bacterial growth by broth microdilution method. It is filed as functional, organism-based.
For the next assay, the system named is Sclerotinia sclerotiorum. Nature of the assay: Antifungal activity against Sclerotinia sclerotiorum Hanzawa assessed as inhibition of fungal growth by broth microdilution method. It is filed as functional, organism-based.
For another assay, the system named is PC-3. Nature of the assay: Anticancer activity against human PC-3 cells assessed as reduction in cell viability by MTT assay. Type of assay: functional, cell-based. (In general: Formazan colour is commonly taken as a measure of viable cells.)
The nature of assay [1]: Inhibition of LPS-induced NF-kappaB activation in mouse RAW264.7 cells transfected with NF-kappaB luciferase reporter gene pretreated with compounds for 30 mins followed by LPS stimulation for 8 hrs by luciferase reporter gene assay. Type of assay: cell-based. (In general: In a reporter assay the amount or activity of a reporter protein is the signal.)
For another assay, the system named is CWR22R. Nature of the assay: Anticancer activity against human 22Rv1 cells assessed as reduction in cell viability by MTT assay. Type of assay: functional, cell-based.
In assay [2] the test system is Colletotrichum gloeosporioides. Nature of the assay: Antifungal activity against Colletotrichum gloeosporioides assessed as inhibition of fungal growth by broth microdilution method. It is filed as functional, organism-based.
The subject of a further assay is Pyricularia grisea. Nature of the assay: Antifungal activity against Magnaporthe grisea assessed as inhibition of fungal growth by broth microdilution method. It is filed as functional, organism-based.
The subject of a further assay is LNCaP. Nature of the assay: Anticancer activity against human LNCaP cells assessed as reduction in cell viability by MTT assay. Type of assay: functional, cell-based.
The subject of the next assay is DU-145. Nature of the assay: Anticancer activity against human DU-145 cells assessed as reduction in cell viability by MTT assay. It is filed as functional, cell-based.
Another assay relates to BMMC. Nature of the assay: Anti-osteoclastogenic activity in mouse BMMC assessed as inhibition of RANKL-induced osteoclast differentiation at 5 to 15 uM and measured after 3 days by TRAP staining inverted microscopic analysis. It is filed as functional, cell-based. Conditions: dose 5-15 µM, time 3.0 day.

The source made the active and inactive calls. The rule behind the calls is not given here.

From ChEMBL document CHEMBL5316335, “Tanzawaic Acid Derivatives from the Marine-Derived Penicillium steckii as Inhibitors of RANKL-Induced Osteoclastogenesis” (J Nat Prod, 2023) come the findings set out here.

Regarding `Cc1ccc2c(c1/C=C/C=C/C(=O)O)[C@H](C)C[C@@](C)(O)C2`, the outcome in the assay on Candida albicans, in the assay with Klebsiella pneumoniae, in the assay on Staphylococcus aureus, in the assay with Sclerotinia sclerotiorum, in the assay with PC-3 and in the assay with CWR22R was inactive. The result (in [2]; with Pyricularia grisea; in the assay with LNCaP; with DU-145) was inactive. Further, in assay [1], the IC50 (as a rule, the concentration needed to halve the response being measured) was 18.6 µM.

As to `Cc1ccc(S(=O)(=O)/C=C/C#N)cc1`, in [1], the 50% inhibitory concentration (IC50) came out at 5 µM.

With `C[C@@H]1C[C@H](C)[C@H](O)c2ccc(CO)c(/C=C/C=C/C(=O)O)c21`, the result in the assay with Candida albicans, with Klebsiella pneumoniae, in the assay on Staphylococcus aureus, in the assay with Sclerotinia sclerotiorum, with PC-3 and in the assay on CWR22R was inactive. In addition, the outcome (in assay [2]; with Pyricularia grisea; in the assay on LNCaP; with DU-145) was inactive. Further, the IC50 in assay [1] came out at 10.4 µM. Moreover, the Activity result in the assay on BMMC was “Dose-Dependent Effect”.

Regarding `C[C@@H]1C[C@@H]2[C@H](O)[C@H](O)[C@H](C)[C@](O)(/C=C/C=C/C(=O)O)[C@H]2[C@H](C)C1`, the outcome in the assay with Candida albicans, in the assay with Klebsiella pneumoniae, in the assay on Staphylococcus aureus, in the assay on Sclerotinia sclerotiorum, in the assay on PC-3 and in the assay on CWR22R was inactive. The outcome (in assay [2]; in the assay with Pyricularia grisea; in the assay with LNCaP; in the assay with DU-145) was inactive. The concentration for half-maximal inhibition (IC50) in assay [1] is 15.2 µM.
